Where a name gives a salt, the structure may show the parent alone. Read-outs that look alike come from different tables or passages of the source.
Key:
NMDA induced convulsions = assay: inhibition of NMDA induced convulsions in the mouse (procedure of Chiamulera C et al.); type: in vivo
Source text: In this test the ability of the compound to inhibit the generalized seizures induced by an intracerebroventricular injection of NMDA in mice was examined at a number of dose levels. […] This expressed as mg/kg is referred to as the ED50 value.

[1] = molecular target: T1, strychnine insensitive glycine binding site located on the NMDA receptor complex (Rattus norvegicus, UniProt P35439); assay: biochemical
T1 construct: from tissue

[2] = mouse, intravenous, NMDA given intracerebroventricularly, read-out: ED50 (dose required to protect 50% of the animals from the convulsive action of NMDA), iv
[3] = mouse, oral, NMDA given intracerebroventricularly, read-out: ED50 (dose required to protect 50% of the animals from the convulsive action of NMDA), po

Ki [1] [nM] | SMILES | other results
20 | O=C(/C=C/c1c(C(=O)O)[nH]c2cc(Cl)cc(Cl)c12)N[C@@H]1C[C@H]2CC[C@@H]1C2 (relative stereo) [Example 10b, (E)-3-(2'-exo-2-norbornylcarbamoyl)ethenyl)-4,6-dichloroindole-2-carboxylicacid sodium salt] | ED50 (NMDA induced convulsions; [2]): 0.01 mg/kg; ED50 (NMDA induced convulsions; [3]): 11.1 mg/kg
10 | O=C(/C=C/c1c(C(=O)O)[nH]c2cc(Cl)cc(Cl)c12)N[C@H]1C[C@H]2CC[C@@H]1C2 (relative stereo) [Example 11, (E) 3-[2-endo-2-norbornylcarbamoyl)ethenyl]4,6-dichloroindole-2-carboxylic acid sodium salt] | –
26.3 | O=C(/C=C/c1c(C(=O)O)[nH]c2cc(Cl)cc(Cl)c12)NC12CC3CC(CC1C3)C2 [Example 14, (E) 3-[2'-(noradamantyl-3"-aminocarbonyl)ethenyl]-4,6-dichloroindole-2-carboxylic acid sodium salt] | ED50 (NMDA induced convulsions; [2]): 0.05 mg/kg; ED50 (NMDA induced convulsions; [3]): 6 mg/kg

The next lines start with the compound.

SMILES | Ki [1] [nM] | other results
O=C(/C=C/c1c(C(=O)[O-])[nH]c2cc(Cl)cc(Cl)c12)NC12CC3CC(CC(C3)C1)C2.[Na+] | – | ED50 (NMDA induced convulsions; Mus musculus, iv, read-out: ED50 (dose required to protect 50% of the animals from the convulsive action of NMDA), iv): 0.02 mg/kg; ED50 (NMDA induced convulsions; Mus musculus, po, read-out: ED50 (dose required to protect 50% of the animals from the convulsive action of NMDA), po): 5.47 mg/kg
CC1(C)[C@@H]2CC[C@@]1(C)[C@@H](NC(=O)/C=C/c1c(C(=O)O)[nH]c3cc(Cl)cc(Cl)c13)C2 [Example 16, (E) 3-[2'-(1"-R-bornyl-2"-aminocarbonyl)ethenyl]-4,6-dichloroindole-2 carboxylic acid sodium salt] | 39.8 | –
O=C(/C=C/c1c(C(=O)O)[nH]c2cc(Cl)cc(Cl)c12)NC1C2CC3CC(C2)CC1C3 (stereo not drawn) [Example 17, (E) 3-[2'-(2"-adamantylaminocarbonyl)ethenyl]-4,6-dichloroindole-2-carboxylic acid sodium salt] | 25.1 | –
O=C(/C=C/c1c(C(=O)[O-])[nH]c2cc(Cl)cc(Cl)c12)NC12CC3CC(CC(C3)C1)C2.[Na+] [sodium salt] | 63.1 | –
